Measurements reported in patent US20130079312A1, “Method of Treating Hair Loss Due to Systemic Chemotherapy” (ELORAC, LTD., priority 2011, published 2013).

Assay: Topical vasoconstrictor formulation applied to hair-bearing areas of patients receiving cancer chemotherapy; hair loss
Type: in vivo

| SMILES | hair loss (Oxymetazoline 2.0% by weight in hydroethanolic foam, scalp and eyebrows, 60 minutes prior to intravenous nitrogen mustard, then three times daily for two week intervals) | hair loss (scalp lotion containing 0.01% naphazoline, 30 minutes prior to and 15 minutes after each course of intravenous docetaxel, breast cancer patients) |
| --- | --- | --- |
| Cc1cc(C(C)(C)C)c(O)c(C)c1CC1=NCCN1 [Oxymetazoline, oxymetazoline] | prevention of major hair loss |  |
| c1ccc2c(CC3=NCCN3)cccc2c1 [naphazoline] |  | lose little, if any, of their hair |
